Experimental data published in patent publication US20240116985A1, “STAPLED PEPTIDES AND METHODS THEREOF” (priority 2020, published 2024).
In brackets after ≈: the same amount, converted by molar mass. Like-named read-outs stand apart in the source and are kept apart here.

Experiments:
[1] = biological target: T1, full-length beta-Catenin (Uniprot ID P35222) (Homo sapiens, UniProt P35222); experiment: Fluorescence polarization IC50 (beta-catenin / 5FAM-TCF4 10-53 competition); format: binding; conditions: read-out: beta-Catenin FP IC50
T1 construct: 10 nM full-length beta-Catenin (Uniprot ID P35222)
T1 sequence (P35222 1-781): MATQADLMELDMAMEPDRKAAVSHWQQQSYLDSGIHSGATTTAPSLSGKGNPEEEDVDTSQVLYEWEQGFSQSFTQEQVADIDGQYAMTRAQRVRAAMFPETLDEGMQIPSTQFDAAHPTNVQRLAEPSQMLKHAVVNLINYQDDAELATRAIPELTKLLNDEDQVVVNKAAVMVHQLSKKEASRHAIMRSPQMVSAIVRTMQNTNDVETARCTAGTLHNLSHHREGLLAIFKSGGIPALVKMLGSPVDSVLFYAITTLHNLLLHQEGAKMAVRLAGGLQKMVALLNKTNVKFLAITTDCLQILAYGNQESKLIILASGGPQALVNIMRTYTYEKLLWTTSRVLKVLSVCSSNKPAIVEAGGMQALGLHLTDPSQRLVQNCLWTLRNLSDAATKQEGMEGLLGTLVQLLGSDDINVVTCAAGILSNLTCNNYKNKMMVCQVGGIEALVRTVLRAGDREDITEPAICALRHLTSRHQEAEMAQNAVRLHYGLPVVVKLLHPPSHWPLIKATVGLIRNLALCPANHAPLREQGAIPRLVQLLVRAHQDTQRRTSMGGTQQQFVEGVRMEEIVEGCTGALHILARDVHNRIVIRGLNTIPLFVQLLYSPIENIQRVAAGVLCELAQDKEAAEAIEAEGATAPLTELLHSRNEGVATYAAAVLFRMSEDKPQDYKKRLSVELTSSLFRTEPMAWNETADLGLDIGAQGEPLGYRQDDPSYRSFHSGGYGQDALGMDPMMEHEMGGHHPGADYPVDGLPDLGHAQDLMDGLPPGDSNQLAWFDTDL

CHI Log D procedure = format: physicochemical; conditions: pH 7.4, CHI Log D
Solubility in PBS = format: physicochemical
Summary of the method: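 The PBS solution was ultracentrifuged and the supernatant analyzed by HPLC. Its peak area was divided by that of a 50 μM peptide DMSO reference injection and multiplied by 50 uM to give solubility.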

[2] = biological target: T2, beta-catenin/TCF4 engagement (Homo sapiens, UniProt P35222); experiment: Nano-BRET target engagement assay (B-cat-Halo & TCF4-Luc in HEK293 cells); format: cell-based; conditions: for inhibition at 10 µM: HEK293, 10 uM, read-out: NanoBRET % inh @ 10 uM
T2 construct: expressed in transfected cells; host or cells: HEK293
T2 sequence (P35222 1-781): T1 sequence (P35222 1-781)

| SMILES | IC50 [1] [nM] | chromatographic logD (CHI Log D procedure) | Solubility (Solubility in PBS) [µM] | IC50 ([2]; read-out: NanoBRET Abs IC50) [nM] | Solubility (Solubility in PBS; Solubility (uM)) [µM] | inhibition at 10 µM [2] [%] | IC50 ([2]; read-out: NanoBRET IC50) [nM] |
| --- | --- | --- | --- | --- | --- | --- | --- |
| CC(=O)N1CCC[C@]12CC=CCCCC1(CCCC=CCCCOC(=O)N3CC[C@@](C(=O)N[C@@H](Cc4ccsc4)C(=O)N[C@@H](Cc4csc5ccccc45)C(=O)N[C@@H](CCC(N)=O)C(N)=O)(C3)NC(=O)[C@H](CCCNC(N)=O)NC(=O)[C@H](Cc3ccccc3)NC(=O)[C@H](C)NC(=O)[C@H](C)NC(=O)[C@H](CC(=O)O)NC(=O)[C@H](CC(=O)O)NC1=O)NC(=O)[C@H](CC(C)(C)C)NC(=O)[C@H](CC(=O)O)NC2=O (stereo partly drawn) [I-805, Ac-PL3-Asp-Npg-B5-Asp-Asp-Ala-Ala-Phe-Cit-PyrS2-3Thi-BztA-Gln-NH2] | 5 | 1.98 | 50 (≈ 98.1 µg/mL) | 18500 | – | – | – |
| CC(=O)N1CCC[C@]12CC=CCCCC1(CCCC=CCCCOC(=O)N3CC[C@@](C(=O)N[C@@H](Cc4ccsc4)C(=O)N[C@@H](Cc4csc5ccccc45)C(=O)N[C@@H](Cc4c[nH]cn4)C(N)=O)(C3)NC(=O)[C@H](CCCNC(N)=O)NC(=O)[C@H](Cc3ccccc3)NC(=O)[C@H](C)NC(=O)[C@H](C)NC(=O)[C@H](CC(=O)O)NC(=O)[C@H](CC(=O)O)NC1=O)NC(=O)[C@H](CC(C)(C)C)NC(=O)[C@H](CC(=O)O)NC2=O (stereo partly drawn) [I-806, Ac-PL3-Asp-Npg-B5-Asp-Asp-Ala-Ala-Phe-Cit-PyrS2-3Thi-BztA-His-NH2] | 5 | 2.04 | – | 21600 | 37 (≈ 72.9 µg/mL) | – | – |
| CC(=O)N1CCC[C@]12CC=CCCCC1(CCCC=CCCCOC(=O)N3CC[C@@](C(=O)N[C@@H](Cc4ccsc4)C(=O)N[C@@H](Cc4csc5ccccc45)C(=O)N[C@@H](Cc4c[nH]cn4)C(N)=O)(C3)NC(=O)[C@H](Cc3ccccc3)NC(=O)[C@H](Cc3ccccc3)NC(=O)[C@H](C)NC(=O)[C@H](C)NC(=O)[C@H](CC(=O)O)NC(=O)[C@H](CC(=O)O)NC1=O)NC(=O)[C@H](CC(C)(C)C)NC(=O)[C@H](CC(=O)O)NC2=O (stereo partly drawn) [I-808, Ac-PL3-Asp-Npg-B5-Asp-Asp-Ala-Ala-Phe-Phe-PyrS2-3Thi-BztA-His-NH2] | 5 | 2.34 | 10 (≈ 19.6 µg/mL) | 4400 | – | – | – |
| CC(=O)N1CCC[C@]12CC=CCCCC1(CCCC=CCCCOC(=O)N3CC[C@@](C(=O)N[C@@H](Cc4ccsc4)C(=O)N[C@@H](Cc4csc5ccccc45)C(=O)N[C@@H](Cc4c[nH]cn4)C(N)=O)(C3)NC(=O)[C@H]([C@@H](C)O)NC(=O)[C@H](Cc3ccccc3)NC(=O)[C@H](C)NC(=O)[C@H](C)NC(=O)[C@H](CC(=O)O)NC(=O)[C@H](CC(=O)O)NC1=O)NC(=O)[C@H](CC(C)(C)C)NC(=O)[C@H](CC(=O)O)NC2=O (stereo partly drawn) [I-810, Ac-PL3-Asp-Npg-B5-Asp-Asp-Ala-Ala-Phe-Thr-PyrS2-3Thi-BztA-His-NH2] | 6 | 2.17 | – | 18000 | 39 (≈ 74.7 µg/mL) | – | – |
| CC(=O)N1CCC[C@]12CC=CCCCC1(CCCC=CCCCOC(=O)N3CC[C@@](C(=O)N[C@@H](Cc4cscn4)C(=O)N[C@@H](Cc4csc5ccccc45)C(=O)N[C@@H](CCC(N)=O)C(N)=O)(C3)NC(=O)[C@H](CC(N)=O)NC(=O)[C@H](Cc3ccccc3)NC(=O)[C@H](C)NC(=O)[C@H](C)NC(=O)[C@H](CC(=O)O)NC(=O)[C@H](CC(=O)O)NC1=O)NC(=O)[C@H](CC(C)(C)C)NC(=O)[C@H](CC(=O)O)NC2=O (stereo partly drawn) [I-811, Ac-PL3-Asp-Npg-B5-Asp-Asp-Ala-Ala-Phe-Asn-PyrS2-4Thz-BztA-Gln-NH2] | 32 | 1.68 | – | > 20000 | 43 (≈ 82.5 µg/mL) | – | – |
| CC(=O)N1CCC[C@]12CC=CCCCC1(CCCC=CCCCOC(=O)N3CC[C@@](C(=O)N[C@@H](Cc4ccsc4)C(=O)N[C@@H](Cc4csc5ccccc45)C(=O)N[C@H](Cc4c[nH]cn4)C(N)=O)(C3)NC(=O)[C@H](CC(N)=O)NC(=O)[C@H](Cc3ccccc3)NC(=O)[C@H](C)NC(=O)[C@H](C)NC(=O)[C@H](CC(=O)O)NC(=O)[C@H](CC(=O)O)NC1=O)NC(=O)[C@H](CC(C)(C)C)NC(=O)[C@H](CC(=O)O)NC2=O (stereo partly drawn) [I-813, Ac-PL3-Asp-Npg-B5-Asp-Asp-Ala-Ala-Phe-Asn-PyrS2-3Thi-BztA-dHis-NH2] | 7 | 2.17 | – | 20900 | 28 (≈ 54 µg/mL) | – | – |
| CC(=O)N1CCC[C@]12CC=CCCCC1(CCCC=CCCCOC(=O)N3CC[C@@](C(=O)N[C@@H](Cc4ccsc4)C(=O)N[C@@H](Cc4csc5ccccc45)C(=O)N[C@@H](CC(N)=O)C(N)=O)(C3)NC(=O)[C@H](CC(N)=O)NC(=O)[C@H](Cc3ccccc3)NC(=O)[C@H](C)NC(=O)[C@H](C)NC(=O)[C@H](CC(=O)O)NC(=O)[C@H](CC(=O)O)NC1=O)NC(=O)[C@H](CC(C)(C)C)NC(=O)[C@H](CC(=O)O)NC2=O (stereo partly drawn) [I-816, Ac-PL3-Asp-Npg-B5-Asp-Asp-Ala-Ala-Phe-Asn-PyrS2-3Thi-BztA-Asn-NH2] | 5 | 2.05 | – | 13700 | 46 (≈ 87.6 µg/mL) | – | – |
| CC(=O)N1CCC[C@]12CC=CCCCC1(CCCC=CCCCOC(=O)N3CC[C@@](C(=O)N[C@@H](Cc4ccsc4)C(=O)N[C@@H](Cc4csc5ccccc45)C(=O)N[C@@H](C(N)=O)[C@H](C)O)(C3)NC(=O)[C@H](CC(N)=O)NC(=O)[C@H](Cc3ccccc3)NC(=O)[C@H](C)NC(=O)[C@H](C)NC(=O)[C@H](CC(=O)O)NC(=O)[C@H](CC(=O)O)NC1=O)NC(=O)[C@H](CC(C)(C)C)NC(=O)[C@H](CC(=O)O)NC2=O (stereo partly drawn) [I-817, Ac-PL3-Asp-Npg-B5-Asp-Asp-Ala-Ala-Phe-Asn-PyrS2-3Thi-BztA-dThr-NH2] | 10 | 2.23 | – | – | 47 (≈ 88.9 µg/mL) | 45 | 6800 |
| CC(=O)N1CCC[C@]12CC=CCCCC1(CCCC=CCCCOC(=O)N3CC[C@@](C(=O)N[C@@H](Cc4ccsc4)C(=O)N[C@@H](Cc4csc5ccccc45)C(=O)N[C@H](CC(N)=O)C(N)=O)(C3)NC(=O)[C@H](CC(N)=O)NC(=O)[C@H](Cc3ccccc3)NC(=O)[C@H](C)NC(=O)[C@H](C)NC(=O)[C@H](CC(=O)O)NC(=O)[C@H](CC(=O)O)NC1=O)NC(=O)[C@H](CC(C)(C)C)NC(=O)[C@H](CC(=O)O)NC2=O (stereo partly drawn) [I-818, Ac-PL3-Asp-Npg-B5-Asp-Asp-Ala-Ala-Phe-Asn-PyrS2-3Thi-BztA-dAsn-NH2] | 6 | 2.12 | – | 15000 | 48 (≈ 91.4 µg/mL) | 31.4 | – |
| CC(=O)N1CCC[C@]12CC=CCCCC1(CCCC=CCCCOC(=O)N3CC[C@@](C(=O)N[C@@H](Cc4ccsc4)C(=O)N[C@@H](Cc4csc5ccccc45)C(=O)N[C@@H](CCC(N)=O)C(=O)N[C@@H](C)C(N)=O)(C3)NC(=O)[C@H](CC(N)=O)NC(=O)[C@H](Cc3ccccc3)NC(=O)[C@H](C)NC(=O)[C@H](C)NC(=O)[C@H](CC(=O)O)NC(=O)[C@H](CC(=O)O)NC1=O)NC(=O)[C@H](CC(C)(C)C)NC(=O)[C@H](CC(=O)O)NC2=O (stereo partly drawn) [I-819, Ac-PL3-Asp-Npg-B5-Asp-Asp-Ala-Ala-Phe-Asn-PyrS2-3Thi-BztA-Gln-Ala-NH2] | 5 | 2.03 | 50 (≈ 99.5 µg/mL) | 7500 | – | 37.8 | – |
| CC(=O)N1CCC[C@]12CC=CCCCC1(CCCC=CCCCOC(=O)N3CC[C@@](C(=O)N[C@@H](Cc4ccsc4)C(=O)N[C@@H](Cc4csc5ccccc45)C(=O)N[C@@H](Cc4c[nH]cn4)C(=O)N[C@@H](C)C(N)=O)(C3)NC(=O)[C@H](CC(N)=O)NC(=O)[C@H](Cc3ccccc3)NC(=O)[C@H](C)NC(=O)[C@H](C)NC(=O)[C@H](CC(=O)O)NC(=O)[C@H](CC(=O)O)NC1=O)NC(=O)[C@H](CC(C)(C)C)NC(=O)[C@H](CC(=O)O)NC2=O (stereo partly drawn) [I-820, Ac-PL3-Asp-Npg-B5-Asp-Asp-Ala-Ala-Phe-Asn-PyrS2-3Thi-BztA-His-Ala-NH2] | 6 | 2.1 | – | 18200 | 38 (≈ 75.9 µg/mL) | 30.8 | – |
